Assay results as given in patent US5137900A, “Therapeutic virginiamycin M1 analogs” (Merck & Co., Inc., priority 1991, dated 1992).

Key:
Pancreatic CCK receptor = biological target: T1, Pancreatic CCK receptor (Rattus norvegicus, UniProt P30551); assay: Pancreatic cholecystokinin receptor binding assay (125I-CCK-8); conditions: rat pancreas membranes, 37° C., 30 minutes
T1 construct: Pancreatic receptor membranes were prepared; from tissue; host or cells: rat pancreas membranes
T1 sequence (P30551 1-444): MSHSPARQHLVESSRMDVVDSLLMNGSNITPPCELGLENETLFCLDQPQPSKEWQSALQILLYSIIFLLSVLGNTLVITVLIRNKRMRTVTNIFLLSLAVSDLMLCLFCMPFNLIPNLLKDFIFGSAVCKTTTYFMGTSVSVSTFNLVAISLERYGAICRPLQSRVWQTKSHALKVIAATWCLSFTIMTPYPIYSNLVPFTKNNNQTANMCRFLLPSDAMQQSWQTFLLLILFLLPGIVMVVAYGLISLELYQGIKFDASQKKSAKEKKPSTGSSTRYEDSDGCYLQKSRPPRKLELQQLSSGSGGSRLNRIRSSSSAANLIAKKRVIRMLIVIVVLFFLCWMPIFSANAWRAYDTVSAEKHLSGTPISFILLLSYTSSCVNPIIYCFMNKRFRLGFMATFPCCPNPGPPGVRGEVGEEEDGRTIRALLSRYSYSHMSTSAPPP
Protocol: Radiolabeled CCK-8 was purchased from New England Nuclear as ^125 I-CCK-8 Receptor binding was performed according to Innis and Snyder Proc. Natl. Acad. Sci., 77, 6917 (1980), with the minor modification of adding the additional protease inhibitors, phenylmethane sulfonyl fluoride (PMSF) and o-phenanthroline, which have no effect on the ^125 I-CCK receptor binding assay. All assays were performed in triplicate. Pancreatic receptor membranes were prepared by homogenzing a gram of fresh rat pancreas tissue in 30 ml TRIS-HCl (50 mM), pH 7.7 using a Brinkman polytron PT10 (Brinkman). The homogenate was washed twice and collected by centrifugation at 48,000×g at 4° C. for 10 minutes. The membranes were resuspended in assay buffer consisting of 5 mM dithiothieitol, 0.1 mM bacitiacin, 5 mM MgCl2.H2 O, 0.2% heat denatured BSA, 1.2 mM PMSF and 0.5 mM O-phenanthroline at a concentration of 100 ml per gram of pancreas. […] The reaction mixtures were mixed briefly and placed in a 37° C. water bath with gentle shaking for 30 minutes. The reaction mixtures were then diluted with 4 ml of ice-cold TRIS buffer, pH 7.7, containing 1 mg/ml bovine serum albumin and immediately filtered in Watman G F/B filters. The filters were washed with 3×4 ml of the same buffer and the radioactivity associated with the filters was counted in a Beckman Gamma 5500 counter. Broths were prepared by adding two volumes of acetone to original broth; supernatants were freeze dried after centrifugation at 1500 g for 10 minutes. The dried samples were then brought up in methanol/H2 O (1:1) and ready for assay.

[1] = cited from earlier work
gastric acid secretion = conditions: cited from earlier work

Molecule	IC50 (Pancreatic CCK receptor) [µM]	further results
CC1=C\C=C\C(=O)Cc2nc(co2)C(=O)N2CCC=C2C(=O)O[C@H](C(C)C)[C@H](C)/C=C/C(=O)NC\C=C\1 [Compound III]	> 10	–
CC1=C\[C@@H](O)CC(=O)Cc2nc(co2)C(=O)N2CCC=C2C(=O)O[C@H](C(C)C)[C@H](C)/C=C/C(=O)NC\C=C\1 [Virginiamycin M1]	> 100	–
CC1=C\C=C\[C@H](O)Cc2nc(co2)C(=O)N2CCC=C2C(=O)O[C@H](C(C)C)[C@H](C)/C=C/C(=O)NC\C=C\1 [Compound II]	> 10	–
C-terminal octapeptide: C-terminal octapeptide of CCK	–	efficacy relative to CCK-33 ([1]; compared with CCK-33): same efficacy; potency relative to CCK-33 ([1]; more potent than CCK-33): approximately ten
CC1=C\C=C\[C@@H](O)Cc2nc(co2)C(=O)N2CCC=C2C(=O)O[C@H](C(C)C)[C@H](C)/C=C/C(=O)NC\C=C\1 [Compound I]	> 10	–
Gastrin-17	–	potency relative to Gastrin-13 (gastric acid secretion; more potent than Gastrin-13, gastric acid secretion): 2.5 times; potency relative to Gastrin-34 (gastric acid secretion; more potent than Gastrin-34, gastric acid secretion): 5 times
